Source: patent EP0462621A2, “Use of particular compounds for manufacture of pharmaceutical formulations for treatment against various parasites, mycoplasmas, other indications and other infections” (Prendergast, Patrick Thomas, priority 1990, dated 1991)

What was measured:
L donovani = test: Amastigotes (AM) in cell lines, in-vitro; format: cell-based; conditions: Ld., Amastigote; further: key: - no/poor activity,; + fair/moderate activity,; ++ good/excellent activity
Excerpt: (§1) Amastigotes of Leishmania can be cultivated in a wide range of mammalian cells, some of which may be used in in-vitro screens. These include (1) a Sticker dog sarcoma (fibroblast) cell line, (2) transformed rodent macrophage cell lines, (3) primary isolated mouse peritoneal macrophages (MP mo), and (4) human monocyte-derived macrophages (HM mo). The methods are similar for all models. Amastigote or promastigote infected cells are maintained in a medium containing the drug for 4-7 days, at 37 C for L. donovani and 33-35 C for L. major and L. mexicana. Drug activity is then assessed by counting (I) the number of infected host cells and/or (II) the number of amastigotes/100 host cells.
(§2) In-vitro and in-vivo models were used to test activities of a selection of many compounds. Those activities are summarized in Tables 1-3, showing variation between systems and species. Activities measured in the MP mo and HM mo models have shown the best correlation with results obtained in hamster and mouse models.

L major/L mexicana = test: Amastigotes (AM) in cell lines, in-vitro; format: cell-based; conditions: Lm., Amastigote; further: key: - no/poor activity,; + fair/moderate activity,; ++ good/excellent activity
Excerpt: as §1, §2

T. cruzi = T. cruzi trypomastigote (TRY) in-vitro screen; format: cell-based
Experimental: In-vitro chemotherapy screens have for many years used models involving three stages of the T. cruzi life cycle: • (1) Epimastigote. Dividing populations are easily cultivated in a range of defined and semi-defined media, but are equivalent to a vector stage of the life cycle. • (2) Trypomastigote. These are isolated from a rodent host and can be maintained as a non-dividing population for 24-48 h in media. • (3) Amastigote. Dividing populations can be cultivated in muscle cells, fibroblasts and macrophages, following infection with trypomastigotes. After the initial infection, there is normally a period of 4-5 days during which the amastigotes divide before transforming, via the epimastigote stage, back to trypomastigotes which escape from the cell. Drug activity is measured during this 4-5 day period. A dividing host cell population, low infection rate, and the presence of trypomastigotes in the overlay can complicate the interpretation of results.

[1] = tested on: Human peripheral blood mononuclear cells; test: Experiment 1a(d): human cell viability, trypan blue counts; format: cell-based; conditions: 18 hours; for Cells/ml (x10^5) / Viability (%): 37° C
Experimental: Human peripheral blood mononuclear cells were incubated for 18 hours in the presence of various concentrations of IPA and azidothymidine (AZT) at 37° C after which time cell viability was determined by visual counts of cells in the presence of trypan blue. Two controls were run, one with each series of experiments.

CAEV = test: Experiment la(c): Himalayan Tahr ovary cells, CAEV, p28 radioimmunoassay; format: cell-based, caprine arthritis encephalitis virus (CAEV); conditions: as read from Figure 15
Excerpt: A procedure similar to that followed in Experiment la (a) was followed using Himalayan Tahr ovary cells exposed to caprine arthritis encephalitis virus (CAEV), a lentivirus related to HIV-1 which causes leukoen- cephalitis and arthritis in goats. A radioimmunoassay to detect CAEV p28 was used to determine the presence of the virus.

[2] = Case study: AIDS patient with hairy leukoplakia, IPA oral fluid dose or mouth wash; format: in vivo, human
Excerpt: When the indication reappeared, following a period of time (several days), the administration of the compound gave further relief.

Enterocytozoon bieneusi = test: Clinical evaluation of AIDS patients with chronic diarrhoea treated with IPA (stool examinations, endoscopic biopsies); format: in vivo; conditions: E. bieneusi identified prior to treatment
Excerpt: Chronic diarrhoea accompanied by wasting is one of the most frequent problems associated with HIV infection. […] A new genera and species of microspora, Enterocytozoon bieneusi, was identified in ultrastructural studies of intestinal biopsies from AIDS patients with unexplained chronic diarrhoea prior to treatment with IPA.
E. bieneusi microsporidiosis (intestinal microsporidiosis) is diagnosed with increasing frequency in AIDS patients with chronic diarrhoea of unknown origin. Forty-seven cases have been reported in the United States, Africa and Europe. […] Until now, diagnosis depended upon light and electron microscopy studies of small bowel biopsies, particularly of the jejunum. Diagnosis is suspected on histological findings either on Giemsa-stained smears and/or hematoxylin-eosin or Giemsa-stained paraffin sections: identification of oval parasites measuring 2-9 u.m and clusters of refractile spores (1-1.5 u.m) in villous enterocytes from just above the mouth of the crypts to the tips of the villi. These organisms are located in the supranuclear position of the cytoplasm. […] Recently reported recovery of spores from faeces, would simplify diagnosis. Unlike other species of microspora, E. bieneusi has not been identified from different organs such as brain and kidney. A proportion of transient diarrhoeas of unknown etiology in AIDS patients may be related to E. bieneusi. […]

[3] = Stability of IPA on storage; format: physicochemical
Experimental: Compounds of Formula la (IPA) have especially low toxicity for pediatrics, and acceptable toxicity of adult humans, although it is somewhat higher than for pediatrics. IPA can be stored dry almost indefinitely if protected from light and stored at -75 °C. IPA is photosensitive and deteriorates at room temperature, whether in a solid form or in aqueous or ethanolic solutions. It was found in experiments that the breakdown rate of IPA is approximately 3% per month in a dark container at room temperature.
Two lots of IPA (Sample 1 and Sample 2) were tested.
Infrared spectra of IPA, taken from time to time, as described below, were used to monitor changes which may have occurred in the IPA over time. The compound was generally stored at -10° C. FT-IR data of fresh IPA are listed in the first column of Table la(m). A second FT-IR spectrum of the same compound, after storage at -10 C for 110 days, was taken and the data are listed in the second column of Table la(m). The melting point of the compound was taken at the same time. The original melting point was 128-130 C, and the second melting point, 110 days later, was 129-132 C.
The observed melting points compare favorably with literature melting points ranging from 126° C to 138° C.

[4] = tested on: herpes simplex type 1 (HSV-1); test: M413 cells, HSV-1; format: cell-based; conditions: M413 cell line of human fibroblasts
Experimental: A procedure similar to that described for Experiment la(g) was followed except herpes simplex virus- type I (HSV-I) was used.
The experiments were performed in duplicate M413 cells which were set up in Titer-Tek slides (4 well, glass) and those that were confluent within one day were used in experiments. Within 24-48 hours, cell densities were checked to ensure sufficiency to proceed with infection. Stock HSV-1 was serially diluted in 10-fold steps (1, 10^-1, 10-^2, 10-^3, 10-^4) to provide 2 ml of each dilution: 0.2/1.8 ml diluent to finally yield overall dilutions of approximately 10^-1, 10^-2, 10-^3, 10^-4, 10-^5. Virus absorption was allowed for 90 minutes at 37 °C, after which time the inoculum was removed and replaced with solutions containing IPA at the concentrations as indicated in Table la(j). The slide was incubated for 3 days and stained with the following antisera: monoclonal antibody (MAB) to HSV-1 virus capsid antigen (VCA) at 1:20; control mores IgG at 1:20.

Compound: CC(C)=CCNc1ncnc2c1ncn2[C@@H]1O[C@H](CO)[C@@H](O)[C@H]1O [IPA, N^6-(Δ^2-isopentenyl) adenosine]
- Activity, AM in cell lines (L donovani): -
- Activity, AM in cell lines (L major/L mexicana): +
- activity, TRY (T. cruzi; T. cruzi strain Sonya): + (Y,Sonya)
- activity, TRY (T. cruzi; T. cruzi strain Y): + (Y,Sonya)
- Cells/ml (x10^5) ([1]; 0.1 µM): 2.4 Cells/ml (x10^5)
- Viability (%) ([1]; 0.1 µM): 86%
- Cells/ml (x10^5) ([1]; 0.3 µM): 1.8 Cells/ml (x10^5)
- Viability (%) ([1]; 0.3 µM): 82%
- Cells/ml (x10^5) ([1]; 1 µM): 2.8 Cells/ml (x10^5)
- Viability (%) ([1]; 1 µM): 100%
- Cells/ml (x10^5) ([1]; 3 µM): 2.6 Cells/ml (x10^5)
- Viability (%) ([1]; 3 µM): 87%
- Cells/ml (x10^5) ([1]; 10 µM): 3.0 Cells/ml (x10^5)
- Viability (%) ([1]; 10 µM): 94%
- Cells/ml (x10^5) ([1]; 30 µM): 3.8 Cells/ml (x10^5)
- Viability (%) ([1]; 30 µM): 95%
- Cells/ml (x10^5) ([1]; 100 µM): 3.8 Cells/ml (x10^5)
- Viability (%) ([1]; 100 µM): 90%
- Cells/ml (x10^5) ([1]; 300 µM): 2.2 Cells/ml (x10^5)
- Viability (%) ([1]; 300 µM): 79%
- Cells/ml (x10^5) ([1]; 1000 µM): 2.8 Cells/ml (x10^5)
- Viability (%) ([1]; 1000 µM): 82%
- Cells/ml (x10^5) ([1]; 3000 µM): 2.2 Cells/ml (x10^5)
- Viability (%) ([1]; 3000 µM): 92%
- cell viability ([1]; 6mM): slight reduction
- Cells/ml (x10^5) ([1]; 6000 µM): 2.4 Cells/ml (x10^5)
- Viability (%) ([1]; 6000 µM): 75%
- toxic effect (cell viability) ([1]; concentrations of from 0.1 µM to 3 u.M): no toxic effect
- IC50 (CAEV): 8 µM
- IC90 (CAEV): 30 µM
- relief of hairy leukoplakia [2]: complete relief
- time to relief of the indication [2]: within seven days
- pathogen found on clinical evaluation (Enterocytozoon bieneusi): fails to identify any pathogen
- change in the compound on storage ([3]; Sample 1, tests over four months): no change in the compound
- breakdown rate ([3]; dark container at room temperature): approximately 3 % per month
- change in the FT-IR spectrum on storage ([3]; storage at -10 C for 110 days): little change in the FT-IR spectrum
- in-vitro levels of herpes simplex type 1 (HSV-1) [4]: reduces
